test system: pY641-STAT6 in Peripheral Blood Mononuclear Cells (PBMC); assay: MSD-pSTAT-PBMC Assay (pSTAT6, IL-4 stimulated); type: cell-based, Human; conditions: Homo sapiens, compound 3 hrs, then 1 ng/mL IL-4 for 10 min
Excerpt: Cryopreserved Peripheral Blood Mononuclear Cells (PBMC) are from AllCells. Recombinant Human IL-4 and IL-6 are from Peprotech. Mouse monoclonal anti-STAT3 antibody, rabbit monoclonal anti-pY705-STAT3 antibody, rabbit monoclonal Anti-pY641-STAT6 antibody, and lysis buffer are from Cell Signaling Technology (CST). Mouse monoclonal anti-STAT6 antibody is from BioLegend. Assay plates, blocker, and anti-rabbit secondary antibody are from Meso Scale Discovery (MSD).
Cryopreserved PBMCs were thawed out and allowed to recover overnight in IMDM+10% heat-inactivated FBS prior to plating 50,000 (STAT3) or 25,000 (STAT6) cells per well in 96-well U-bottom tissue culture plates. Cells were treated with compound for 3 hrs, then stimulated with 10 ng/mL IL-6 (STAT3) or 1 ng/mL IL-4 (STAT6) for 10 min. Cells were then spun down and washed with ice-cold PBS prior to lysing the cell pellet with 1× lysis buffer (CST) with 1×HALT protease and phosphatase inhibitor cocktail (Thermo). Lysates were transferred to and incubated overnight at 4° C. with shaking in QuickPlex 96-well high bind assay plates (MSD) pre-coated overnight with 30 μL per well of 0.6 μg/mL mouse monoclonal anti-STAT3 antibody (STAT3) or 2 μg/mL mouse monoclonal anti-STAT6 antibody (STAT6) in 1×PBS, and pre-blocked for 1 hour with 3% Blocker-A (MSD). Captured protein in the assay plates were then washed and probed with 25 μL per well of 0.25 μg/ml rabbit monoclonal anti-pY705-STAT3 antibody (STAT3) or […] rabbit monoclonal Anti-pY641-STAT6 antibody (STAT6) in 1% Blocker-A for 1 hour at room temperature with shaking, then washed and probed with 25 ul per well of 1 ug/ml Sulfo-TAG Labeled Goat Anti-Rabbit Antibody (MSD) in 1% Blocker-A for 1 hour at room temperature with shaking. Assay plates were then washed and 150 μL of 1× Read Buffer-T (MSD) was added to each well prior to reading on an SQ120 MSD Plate Reader. Assay signal from each sample was subtracted by the signal from unstimulated control wells and normalized to DMSO control wells. IC50 values were calculated using Graph Pad Prism Dose-Response Nonlinear Regression with variable slope. For both pSTAT3 and pSTAT6 A=≤100 nM; B=>100-1000 nM; C=>1000-3000 nM; and D=>3 μM.

Question: With `Cc1ccc2[nH]nc(C(=O)N3CC[C@H]4CC[C@@H](C(=O)N5C[C@H](c6cc[nH]c(=O)c6)CC56CC6)N4C(=O)[C@@H](NC(=O)c4ccc5ccc(C(F)(F)P(=O)(OCCSC(=O)CC(C)C)OCCSC(=O)CC(C)C)cc5c4)C3)c2c1` [Compound 431, S,S′-((((difluoro(7-(((5S,8S,10aR)-3-(5-methyl-1H-indazole-3-carbonyl)-6-oxo-8-(6-(2-oxo-1,2-dihydropyridin-4-y1)-4-azaspiro[2.4]heptane-4-carbonyl)dec-ahydropyrrolo [1,2-a][1,5]diazocin-5-yl)carbamoyl)naphthalen-2-yl)methyl)phosphoryl)bis(oxy))bis(ethane-2,1-diyl)) bis(3-methylbutane thioate)] as the compound, how does the IC50 read?
Answer: ≤ 0.1 µM

Question: For `CCCOC(=O)[C@H](C)NP(=O)(Oc1ccccc1)C(F)c1ccc2ccc(C(=O)N[C@H]3CN(C(=O)c4cc(Cl)c5nc(C)ccc5c4)CC[C@H]4CC[C@@H](C(=O)N5CCOCC5)N4C3=O)cc2c1` (stereo partly drawn) [Compound 407, propyl (((7-(((5S,8S,10aR)-3-(8-chloro-2-methylquinoline-6-carbonyl)-8-(morpholine-4-carbonyl)-6-oxodeca-hydropyrrolo [1,2-a][1,5]diazocin-5-yl)carbamoyl)naphthalen-2-yl)fluoromethyl) (phenoxy)phosphoryl)-L-alaninate], which IC50 is on record?
Answer: 1 to 3 µM

Question: With `CCCOC(=O)[C@H](C)NP(=O)(Oc1ccccc1)C(F)c1ccc2ccc(C(=O)N[C@H]3CN(C(C)=O)CC[C@H]4CC[C@@H](C(=O)N5CC(c6ccn(C)c(=O)c6)CC56CC6)N4C3=O)cc2c1` (stereo partly drawn) [Compound 406, propyl (((7-(((5S,8S,10aR)-3-acetyl-8-(6-(1-methyl-2-oxo-1,2-dihydro-pyridin-4-yl)-4-azaspiro[2.4]heptane-4-carbonyl)-6-oxodeca-hydropyrrolo [1,2-a] [1,5]diazocin-5-yl)carbamoyl)naphthalen-2-yl)fluoromethyl) (phenoxy)phosphoryl)-L-alaninate] as the compound, how does the IC50 read?
Answer: 0.1 to 1 µM

Question: How did the IC50 turn out when `CCCOC(=O)[C@H](C)NP(=O)(Oc1ccccc1)[C@H](F)c1ccc2ccc(C(=O)N[C@H]3CN(C(=O)c4noc5ccc(C)cc45)CC[C@H]4CC[C@@H](C(=O)N5C[C@@H](c6ccn(C)c(=O)c6)CC56CC6)N4C3=O)cc2c1` (stereo partly drawn) [Compound 417, propyl (((S)-fluoro(7-(((5S,8S,10a R)-8-((R)-6-(1-methyl-2-oxo-1,2-dihydro-pyridin-4-yl)-4-azaspiro[2.4]heptane-4-carbonyl)-3-(5-methylbenzo [d]isoxazole-3-carbonyl)-6-oxodeca-hydropyrrolo [1,2-a][1,5]diazocin-5-yl)carbamoyl)naphthalen-2-yl)methyl) (phenoxy)phosphoryl)-L-alaninate] was run?
Answer: ≤ 0.1 µM

Question: For `CCCOC(=O)[C@H](C)NP(=O)(Oc1ccccc1)C(F)c1ccc2ccc(C(=O)N[C@H]3CN(C(=O)c4noc5ccc(C)cc45)CC[C@H]4CC[C@@H](C(=O)N5CCOC[C@@H]5c5ccccc5)N4C3=O)cc2c1` (stereo partly drawn) [Compound 412, propyl ((fluoro(7-(((5S,8S,10aR)-3-(5-methylbenzo [d]isoxazole-3-carbonyl)-6-oxo-8-((S)-3-phenyl-morpholine-4-carbonyl)decahydro-pyrrolo [1,2-a][1,5]diazocin-5-yl)carbamoyl)naphthalen-2-yl)methyl) (phenoxy)phosphoryl)-L-alaninate], which IC50 is on record?
Answer: 0.1 to 1 µM

Question: `CCCOC(=O)[C@H](C)NP(=O)(Oc1ccccc1)C(F)c1ccc2ccc(C(=O)N[C@H]3CN(C(=O)c4noc5ccc(C)cc45)CC[C@H]4CC[C@@H](C(=O)N5CCN(S(C)(=O)=O)CC5)N4C3=O)cc2c1` (stereo partly drawn) [Compound 410, propyl ((fluoro(7-(((5S,8S,10aR)-3-(5-methylbenzo [d]isoxazole-3-carbonyl)-8-(4-(methylsulfonyl)piperazine-1-carbonyl)-6-oxodeca-hydropyrrolo [1,2-a][1,5]diazocin-5-yl)carbamoyl)naphthalen-2-yl)methyl) (phenoxy)phosphoryl)-L-alaninate] was tested. Which IC50 did it give?
Answer: 0.1 to 1 µM

Question: With `Cc1ccc2onc(C(=O)N3CC[C@H]4CC[C@@H](C(=O)N5C[C@H](c6ccn(C)c(=O)c6)CC56CC6)N4C(=O)[C@@H](NC(=O)c4ccc5ccc(C(F)(F)P(=O)(OCCSC(=O)C(C)(C)C)OCCSC(=O)C(C)(C)C)cc5c4)C3)c2c1` [Compound 437, S,S′-((((difluoro(7 (((5S,8S,10aR)-8-((S)-6-(1-methyl-2-oxo-1,2-dihydropyridin-4-yl)-4-azaspiro[2.4]heptane-4-carbonyl)-3-(5-methylbenzo [d]isoxazole-3-carbonyl)-6-oxodeca-hydropyrrolo [1,2-a][1,5]diazocin-5-yl)carbamoyl)naphthalen-2-yl)methyl)phosphoryl)bis (oxy))bis (ethane-2,1-diyl))bis(2,2-dimethyl-propanethioate)] as the compound, how does the IC50 read?
Answer: ≤ 0.1 µM

Question: With `CCCOC(=O)[C@H](C)NP(=O)(Oc1ccccc1)C(F)c1ccc2sc(C(=O)N[C@H]3CN(CC(F)F)CC[C@H]4CC[C@@H](C(=O)N5C[C@@H](C#N)[C@H](c6ccccc6)C5)N4C3=O)cc2c1` (some centres unmarked) [Compound 441] as the compound, how does the IC50 read?
Answer: ≤ 0.1 µM

Question: `CCCOC(=O)[C@H](C)NP(=O)(Oc1ccccc1)C(F)c1ccc2ccc(C(=O)N[C@H]3CCN(C(=O)c4cc(C)cc(Cl)c4)C[C@H]4CC[C@@H](C(=O)N5CCOCC5)N4C3=O)cc2c1` (stereo partly drawn) [Compound 422, propyl (((7-(((5S,8S,10aR)-2-(3-chloro-5-methylbenzoyl)-8-(morpholine-4-carbonyl)-6-oxodeca-hydropyrrolo [1,2-a][1,4]diazocin-5-yl)carbamoyl)naphthalen-2-yl)fluoromethyl) (phenoxy)phosphoryl)-L-alaninate] was tested. Which IC50 did it give?
Answer: 1 to 3 µM

Question: With `CCCOC(=O)[C@H](C)NP(=O)(Oc1ccccc1)[C@H](F)c1ccc2ccc(C(=O)N[C@H]3CN(C(=O)c4noc5ccc(C)cc45)CC[C@H]4CC[C@@H](C(=O)N5C[C@H](c6ccn(C)c(=O)c6)CC56CC6)N4C3=O)cc2c1` (stereo partly drawn) [Compound 419, propyl (((S)-fluoro(7-(((5S,8S,10aR)-8-((S)-6-(1-methyl-2-oxo-1,2-dihydropyridin-4-yl)-4-azaspiro[2.4]heptane-4-carbonyl)-3-(5-methylbenzo [d]isoxazole-3-carbonyl)-6-oxodeca-hydropyrrolo [1,2-a][1,5]diazocin-5-yl)carbamoyl)naphthalen-2-yl)methyl) (phenoxy)phosphoryl)-L-alaninate] as the compound, how does the IC50 read?
Answer: ≤ 0.1 µM

Question: With `CCCOC(=O)[C@H](C)NP(=O)(Cc1ccc2ccc(C(=O)N[C@H]3CN(C(C)=O)CC[C@H]4CC[C@@H](C(=O)N5CC(c6ccn(C)c(=O)c6)CC56CC6)N4C3=O)cc2c1)Oc1ccccc1` (stereo partly drawn) [Compound 408, propyl (((7-(((5S,8S,10aR)-3-acetyl-8-(6-(1-methyl-2-oxo-1,2-dihydropyridin-4-yl)-4-azaspiro [2.4]heptane-4-carbonyl)-6-oxodeca-hydropyrrolo [1,2-a] [1,5]diazocin-5-yl)carbamoyl)naphthalen-2-yl)methyl) (phenoxy)phosphoryl)-L-alaninate] as the compound, how does the IC50 read?
Answer: 1 to 3 µM

Question: With `CCCOC(=O)[C@H](C)NP(=O)(Oc1ccccc1)C(F)c1ccc2ccc(C(=O)N[C@H]3CN(C(=O)c4noc5ccc(C)cc45)CC[C@H]4CC[C@@H](C(=O)N5CCOC(Cc6ccccc6)C5)N4C3=O)cc2c1` (stereo partly drawn) [Compound 415, propyl (((7-(((5S,8S,10aR)-8-(2-benzyl-morpholine-4-carbonyl)-3-(5-methylbenzo [d]isoxazole-3-carbonyl)-6-oxodeca-hydropyrrolo [1,2-a][1,5]diazocin-5-yl)carbamoyl)naphthalen-2-yl)fluoromethyl) (phenoxy)phosphoryl)-L-alaninate] as the compound, how does the IC50 read?
Answer: 0.1 to 1 µM

Question: `CCCOC(=O)[C@H](C)NP(=O)(Oc1ccccc1)C(F)c1ccc2ccc(C(=O)N[C@H]3CN(C(=O)c4cc5ncccn5n4)CC[C@H]4CC[C@@H](C(=O)N5CCOCC5)N4C3=O)cc2c1` (stereo partly drawn) [Compound 426, propyl ((fluoro(7-(((5S,8S,10aR)-8-(morpholine-4-carbonyl)-6-oxo-3-(pyrazolo[1,5-a]pyrimidine-2-carbonyl)decahydro-pyrrolo [1,2-a][1,5]diazocin-5-yl)carbamoyl)naphthalen-2-yl)methyl) (phenoxy)phosphoryl)-L-alaninate] was tested. Which IC50 did it give?
Answer: > 3 µM

Question: `Cc1ccc2onc(C(=O)N3CC[C@H]4CC[C@@H](C(=O)N5C[C@H](c6ccn(C)c(=O)c6)CC56CC6)N4C(=O)[C@@H](NC(=O)c4ccc5ccc(C(F)(F)P(=O)(OCCSC(=O)CC(C)C)OCCSC(=O)CC(C)C)cc5c4)C3)c2c1` [Compound 438, S,S′-((((difluoro(7 (((5S,8S,10aR)-8-((S)-6-(1-methyl-2-oxo-1,2-dihydropyridin-4-yl)-4-azaspiro[2.4]heptane-4-carbonyl)-3-(5-methylbenzo [d]isoxazole-3-carbonyl)-6-oxodeca-hydropyrrolo [1,2-a][1,5]diazocin-5-yl)carbamoyl)naphthalen-2-yl)methyl)phosphoryl)bis (oxy))bis (ethane-2,1-diyl))bis(3-methylbutane thioate)] was tested. Which IC50 did it give?
Answer: ≤ 0.1 µM
